Data as given in ChEMBL document CHEMBL1201862, “PubChem BioAssay data set” (2004).
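96-well plates; 48 h exposure; 5 concentrations. Endpoints by linear interpolation between flanking doses. Not reached: highest tested concentration assigned. Here, GI50 denotes the concentration required for 50% inhibition of growth.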 Activity calls are given as the source filed them. Rule as the data show it: active = GI50 up to about 1.1 µM and inactive = higher.

Tests used:
Assay in all cases: NCI tumour cell line growth inhibition, 48 h
[1] = system: T47D
[2] = system: MCF7
[3] = system: NCI/ADR-RES
[4] = system: A549
[5] = system: NCI-H522
[6] = system: ACHN
[7] = system: IGROV-1
[8] = system: NCI-H23
[9] = system: OVCAR-8
[10] = system: UACC-257
[11] = system: SK-MEL-28
[12] = system: Malme-3M
[13] = system: HOP-62
[14] = system: MOLT-4
[15] = system: UACC-62
[16] = system: BT-549
[17] = system: SNB-75
[18] = system: EKVX
[19] = system: LOX IMVI

Compound	GI50 [1]	GI50 [2]	GI50 [3]	GI50 [4]	GI50 [5]	GI50 [6]	GI50 [7]	GI50 [8]	GI50 [9]	GI50 [10]	GI50 [11]	GI50 [12]	GI50 [13]	GI50 [14]	GI50 [15]	GI50 [16]	GI50 [17]	GI50 [18]	GI50 [19]
O=C1NC(=O)C(Cc2ccccc2)(c2cccnc2)N1 (configuration not stated)	> 100 µM (inactive)	> 100 µM (inactive)	> 100 µM (inactive)	> 100 µM (inactive)	> 100 µM (inactive)	> 100 µM (inactive)	> 100 µM (inactive)	> 100 µM (inactive)	> 100 µM (inactive)	> 100 µM (inactive)	> 100 µM (inactive)	> 100 µM (inactive)	> 100 µM (inactive)	> 100 µM (inactive)	> 100 µM (inactive)	> 100 µM (inactive)	> 100 µM (inactive)	> 100 µM (inactive)	> 100 µM (inactive)
CCN(Cc1cc(Cl)cc(C)c1O)Cc1c(O)ccc2ccccc12	16.6 µM (inactive)	19.9 µM (inactive)	14.8 µM (inactive)	18.8 µM (inactive)	11.2 µM (inactive)	17.3 µM (inactive)	15.3 µM (inactive)	15.6 µM (inactive)	17.7 µM (inactive)	15.8 µM (inactive)	17.9 µM (inactive)	14.5 µM (inactive)	12.5 µM (inactive)	5.36 µM (inactive)	15.7 µM (inactive)	13.3 µM (inactive)	11.7 µM (inactive)	17.3 µM (inactive)	18.2 µM (inactive)
Cc1cc(C)c2c(SCc3ccc(Cl)cc3Cl)nc(N)nc2n1	17.2 µM (inactive)	31.6 µM (inactive)	> 100 µM (inactive)	36.3 µM (inactive)	15.5 µM (inactive)	57.5 µM (inactive)	28.7 µM (inactive)	> 100 µM (inactive)	28.9 µM (inactive)	4.6 µM (inactive)	> 100 µM (inactive)	32 µM (inactive)	37.4 µM (inactive)		> 100 µM (inactive)	> 100 µM (inactive)	58.6 µM (inactive)	> 100 µM (inactive)	28.9 µM (inactive)
O=C1N=C2SC=C(NC(=S)Nc3ccccc3)N2NC12c1ccccc1-c1ccccc12	5.7 µM (inactive)	> 10 µM (inactive)	> 10 µM (inactive)	> 10 µM (inactive)	> 10 µM (inactive)	9.4 µM (inactive)	> 10 µM (inactive)	> 10 µM (inactive)	> 10 µM (inactive)	> 10 µM (inactive)	> 10 µM (inactive)	> 10 µM (inactive)	> 10 µM (inactive)	> 10 µM (inactive)	> 10 µM (inactive)	> 10 µM (inactive)	> 10 µM (inactive)	9.25 µM (inactive)	> 10 µM (inactive)
CSc1c(C(=O)Nc2ccccc2)c(N)n(N)c(=O)c1C#N	> 100 µM (inactive)	> 100 µM (inactive)	> 100 µM (inactive)	> 100 µM (inactive)	64 µM (inactive)		> 100 µM (inactive)	> 100 µM (inactive)	> 100 µM (inactive)	> 100 µM (inactive)	> 100 µM (inactive)	> 100 µM (inactive)		> 100 µM (inactive)	> 100 µM (inactive)	> 100 µM (inactive)	> 100 µM (inactive)	> 100 µM (inactive)	> 100 µM (inactive)
Cn1c(=O)[nH]c2sc3c(c2c1=N)CCCC3	> 75 µM (inactive)	> 75 µM (inactive)	> 75 µM (inactive)		> 75 µM (inactive)	> 75 µM (inactive)	> 75 µM (inactive)	> 75 µM (inactive)	> 75 µM (inactive)	> 75 µM (inactive)	> 75 µM (inactive)	> 75 µM (inactive)	> 75 µM (inactive)	> 75 µM (inactive)	> 75 µM (inactive)	> 75 µM (inactive)	> 75 µM (inactive)	54.7 µM (inactive)	> 75 µM (inactive)
CC1=C([S+]([O-])c2ccc(C)cc2)CCC2(CCCCO2)O1 (configuration not stated)	> 100 µM (inactive)	> 100 µM (inactive)	> 100 µM (inactive)		> 100 µM (inactive)	> 100 µM (inactive)	> 100 µM (inactive)	> 100 µM (inactive)	> 100 µM (inactive)	> 100 µM (inactive)	> 100 µM (inactive)	> 100 µM (inactive)	> 100 µM (inactive)	> 100 µM (inactive)	> 100 µM (inactive)	> 100 µM (inactive)	> 100 µM (inactive)	> 100 µM (inactive)	> 100 µM (inactive)
COC(=O)Cc1ccc2c(cnn2-c2ccccc2)c1OC	> 10 µM (inactive)	> 10 µM (inactive)	> 10 µM (inactive)	> 10 µM (inactive)	> 10 µM (inactive)	> 10 µM (inactive)	> 10 µM (inactive)	> 10 µM (inactive)	> 10 µM (inactive)	> 10 µM (inactive)	> 10 µM (inactive)	> 10 µM (inactive)	> 10 µM (inactive)	> 10 µM (inactive)	> 10 µM (inactive)	> 10 µM (inactive)	> 10 µM (inactive)	9.75 µM (inactive)	> 10 µM (inactive)
COC(=O)[C@]1(NC(=O)c2ccccc2)C[C@H]1C=O	> 100 µM (inactive)	> 100 µM (inactive)	> 58.6 µM (inactive)	> 100 µM (inactive)	> 61.1 µM (inactive)	> 100 µM (inactive)	> 100 µM (inactive)	> 100 µM (inactive)	> 100 µM (inactive)	> 100 µM (inactive)	> 100 µM (inactive)	> 100 µM (inactive)	> 100 µM (inactive)	> 64.7 µM (inactive)	> 64.7 µM (inactive)	98.2 µM (inactive)	> 42.9 µM (inactive)	> 100 µM (inactive)	98.6 µM (inactive)
Cc1cc2c(cc1Cl)SC(NN(C)C)=NS2(=O)=O	> 10 µM (inactive)	> 10 µM (inactive)	> 10 µM (inactive)	> 10 µM (inactive)	> 10 µM (inactive)	> 10 µM (inactive)	> 10 µM (inactive)	> 10 µM (inactive)	> 10 µM (inactive)	> 10 µM (inactive)	> 10 µM (inactive)	> 10 µM (inactive)	> 10 µM (inactive)	> 10 µM (inactive)	> 10 µM (inactive)	> 10 µM (inactive)	> 10 µM (inactive)	> 10 µM (inactive)	> 10 µM (inactive)
CCCCCCC(C)c1ccc2c(c1)C(=O)c1nc3ccncc3c(=O)n1-2 (configuration not stated)	3.63 µM (inactive)	5.06 µM (inactive)	5.68 µM (inactive)	5.65 µM (inactive)	1.29 µM (inactive)	3.33 µM (inactive)	2.51 µM (inactive)	2.14 µM (inactive)	6.87 µM (inactive)	2.84 µM (inactive)	14.5 µM (inactive)	0.235 µM (active)	5.13 µM (inactive)	0.661 µM (active)	2.29 µM (inactive)	4.21 µM (inactive)	8.59 µM (inactive)	4.25 µM (inactive)	1.06 µM (active)
O=C1/C(=C/c2ccc(O)cc2)Oc2ccccc21	> 100 µM (inactive)	> 100 µM (inactive)	> 100 µM (inactive)	> 100 µM (inactive)	23.8 µM (inactive)	> 100 µM (inactive)	> 100 µM (inactive)	62.7 µM (inactive)	> 100 µM (inactive)	> 100 µM (inactive)	> 100 µM (inactive)	> 100 µM (inactive)	> 100 µM (inactive)	44.9 µM (inactive)	> 100 µM (inactive)	> 100 µM (inactive)	60.1 µM (inactive)	> 100 µM (inactive)	> 100 µM (inactive)
Clc1ccc(NCc2nnc(CCCCCCCCc3nnc(CNc4ccc(Cl)cc4)o3)o2)cc1	> 100 µM (inactive)	> 100 µM (inactive)	> 100 µM (inactive)	> 100 µM (inactive)	> 100 µM (inactive)	> 100 µM (inactive)		> 100 µM (inactive)	> 100 µM (inactive)	> 100 µM (inactive)		> 100 µM (inactive)	> 100 µM (inactive)	> 100 µM (inactive)	> 100 µM (inactive)	> 100 µM (inactive)	> 100 µM (inactive)	> 100 µM (inactive)	> 100 µM (inactive)
CC[C@@]1(C[C@H]2C[C@@]3(C(=O)OC)c4[nH]c5ccccc5c4CCN3C2=S)COC2(CCCCC2)O1	26.2 µM (inactive)	33.3 µM (inactive)	57 µM (inactive)	54.6 µM (inactive)	59.2 µM (inactive)	45.8 µM (inactive)	61.7 µM (inactive)	21.4 µM (inactive)	> 100 µM (inactive)	26.5 µM (inactive)		> 100 µM (inactive)	22.2 µM (inactive)	6.15 µM (inactive)	11.3 µM (inactive)	4.72 µM (inactive)	17.8 µM (inactive)	58.9 µM (inactive)	78 µM (inactive)
CCN(CC)CCNc1ccc(/N=N/c2ccc(S(N)(=O)=O)cc2)c2ccccc12	2.55 µM (inactive)	6.73 µM (inactive)	24.2 µM (inactive)	4.99 µM (inactive)	14.9 µM (inactive)	13 µM (inactive)	13.1 µM (inactive)	23.2 µM (inactive)	5.82 µM (inactive)	14.9 µM (inactive)	11.5 µM (inactive)	15.7 µM (inactive)	6.73 µM (inactive)	6.25 µM (inactive)	8.61 µM (inactive)	13.6 µM (inactive)	10.3 µM (inactive)	19 µM (inactive)	2.65 µM (inactive)
